Among the test systems are 786-0 renal; EKVX NSCLC; HCC-2998 colon; HCT-15 colon; HT29 colon; MCF7 breast; PC-3 prostate; SK-MEL-5 melanoma; U251 CNS; UACC-62 melanoma.
Common to all, as to assay: NCI anticancer screen, dose series, 48 h

The structures appear in SMILES notation.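 Values below derive from 48-hour exposures of cells grown in 96-well plates, with endpoints linearly interpolated between the two concentrations bracketing the appropriate inhibition level. GI50 marks 50% less growth. The concentration for full growth arrest is given as TGI.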

GI50 and TGI data for 1 compound are collected here from PubChem BioAssay (NCI).

Turning to `Cc1ccc2c(c1)C(C)Cc1c(ncnc1-n1cnc3cc(C)ccc31)N2C` (stereo not given), the GI50 in the test with 786-0 renal was 37.1 nM; in the test with EKVX NSCLC it was 63.4 nM; in the test with HCC-2998 colon, 42.2 nM; in the test with HCT-15 colon, 33.4 nM; in the test with HT29 colon, 30.2 nM; in the test with MCF7 breast it was 34.5 nM. For the same compound, the GI50 was 43.4 nM in the test on PC-3 prostate, 32.4 nM with SK-MEL-5 melanoma, 36.2 nM in the test on U251 CNS and 86 nM in the test on UACC-62 melanoma. In addition, the TGI came to 12500 nM with 786-0 renal; 23800 nM with EKVX NSCLC; 16300 nM in the test with HCC-2998 colon; 11700 nM in the test on HCT-15 colon; 195 nM in the test on HT29 colon; 12800 nM in the test on MCF7 breast. Also, the TGI came out at 16500 nM in the test with PC-3 prostate, 165 nM in the test with SK-MEL-5 melanoma, 12100 nM with U251 CNS and 16700 nM with UACC-62 melanoma.
